We go through two compounds from article PMC8552062, “Contributions of UDP-Glucuronosyltransferases to Human Hepatic and Intestinal Metabolism of Ticagrelor and Inhibition of UGTs and Cytochrome P450 Enzymes by Ticagrelor and its Glucuronidated Metabolite” (Frontiers in Pharmacology, 2021).

The IC50 is the concentration at which inhibition is half-maximal. A lower IC50 goes with greater potency in that assay. The term microsomal CLint denotes the capacity of the preparation to metabolise the compound, expressed as a volume cleared per time.

The structures appear in SMILES notation. Some results are limits rather than exact numbers.

Holding throughout (type): in vitro ADME
Data set [1] deals with T1, CYP2D6 (Homo sapiens, UniProt P10635).
T1 construct: co-incubation ticagrelor-O-Glu with selective P450 probe substrates in HLM; tissue XenoTech LLC; host or cells: pooled human liver microsomes
T1 sequence (P10635 whole entry): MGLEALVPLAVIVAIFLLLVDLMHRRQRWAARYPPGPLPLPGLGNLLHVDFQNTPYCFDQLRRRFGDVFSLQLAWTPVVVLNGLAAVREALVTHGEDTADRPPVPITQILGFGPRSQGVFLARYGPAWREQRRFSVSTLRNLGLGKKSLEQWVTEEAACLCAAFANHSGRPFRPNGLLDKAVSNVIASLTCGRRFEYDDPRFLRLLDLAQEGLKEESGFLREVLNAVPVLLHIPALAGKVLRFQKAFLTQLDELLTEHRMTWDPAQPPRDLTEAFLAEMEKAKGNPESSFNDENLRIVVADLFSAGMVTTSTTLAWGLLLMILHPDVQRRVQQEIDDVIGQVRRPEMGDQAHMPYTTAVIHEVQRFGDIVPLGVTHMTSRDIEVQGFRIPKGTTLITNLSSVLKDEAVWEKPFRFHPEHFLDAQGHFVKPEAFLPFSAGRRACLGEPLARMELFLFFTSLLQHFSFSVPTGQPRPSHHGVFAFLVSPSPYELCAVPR
In words: CYP2D6 inhibition in HLM (dextromethorphan O-demethylase). The note with it: HLM 0.2 mg/ml. Here is the method: (§1) The potential inhibitory effects of ticagrelor-O-Glu on the activities of major CYPs, i.e., CYP2B6, CYP2C8, CYP2C9, CYP2C19, CYP2D6, and CYP3A4, were evaluated by co-incubation ticagrelor-O-Glu with selective P450 probe substrates in HLM. Each incubation mixture containing 0.2 mg/ml HLM, ticagrelor-O-Glu and respective substrate (the final substrate concentrations are close to or less than the Km values: 150 μM bupropion, 1.26 μM amodiaquine, 10 μM diclofenac, 20 μM mephenytoin, 20 μM dextromethorphan and 80 μM testosterone (in house data)) in potassium phosphate buffer (100 mM, pH 7.4) was pre-incubated at 37°C for 5 min. Then, NADPH (10 mM) was added to initiate the reaction. The final volume of the incubation mixture was 100 μl. After incubation at 37°C for specific time points, the reaction was terminated by the addition of 200 μl of ice-cold methanol solution with internal standards (diazepam and furafylline). […] The formation of respective metabolites was determined to reflect P450 isoform activities. The metabolites quantified for CYP2B6, CYP2C8, CYP2C9, CYP2C19, CYP2D6, and CYP3A4 were hydroxy bupropion, N-Desethyl amodiaquine, 4′-hydroxylation diclofenac, S-4-hydroxy mephenytoin, dextrorphan and 6β-hydroxy testosterone, respectively.
(§2) The percent inhibition relative to the control was calculated to indicate the UGTs or CYPs inhibition. […]

Data set [2] concerns the target T2, CYP2C8 (Homo sapiens, UniProt P10632).
T2 construct: co-incubation ticagrelor-O-Glu with selective P450 probe substrates in HLM; tissue XenoTech LLC; host or cells: pooled human liver microsomes
The experiment in a line: CYP2C8 inhibition in HLM (amodiaquine N-deethylase). The conditions noted are these: HLM 0.2 mg/ml. Here is the method: as §1, §2

The target in data set [3] is T3, UGT1A6 (Homo sapiens, UniProt P19224).
T3 sequence (P19224 27-532): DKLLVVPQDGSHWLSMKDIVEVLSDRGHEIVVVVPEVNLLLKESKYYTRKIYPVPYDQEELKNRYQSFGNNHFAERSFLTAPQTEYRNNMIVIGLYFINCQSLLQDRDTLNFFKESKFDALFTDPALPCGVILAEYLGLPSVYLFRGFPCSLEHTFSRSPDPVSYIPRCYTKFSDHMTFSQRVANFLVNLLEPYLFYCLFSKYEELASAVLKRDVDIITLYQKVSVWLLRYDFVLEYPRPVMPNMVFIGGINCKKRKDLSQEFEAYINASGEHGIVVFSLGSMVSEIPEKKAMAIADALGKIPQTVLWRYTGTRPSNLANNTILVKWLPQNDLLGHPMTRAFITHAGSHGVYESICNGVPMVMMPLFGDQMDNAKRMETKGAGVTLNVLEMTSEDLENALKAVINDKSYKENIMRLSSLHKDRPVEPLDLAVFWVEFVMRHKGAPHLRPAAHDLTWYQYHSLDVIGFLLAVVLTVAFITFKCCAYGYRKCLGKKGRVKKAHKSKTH
In words: Ticagrelor glucuronidation screen, recombinant human UGT1A6. On the set-up: purchased BD Gentest; host or cells: baculovirus-infected insect cells. The note with it: 10 μM ticagrelor. As for the experimental part: (§3) Ticagrelor glucuronidation was investigated in an in vitro incubation system by using HLM, HIM, and recombinant human UGTs. The incubation system consisted of enzyme sources (HLM, HIM, or human recombinant UGTs), various concentrations of ticagrelor (dissolved in 50% methanol, 1% v/v, 1, 2, 5, 10, 20, 50, 100, 200, 500 μM of final concentration), alamethicin (50 μg/mg protein), 5 mM MgCl2, 100 mM tris-HCL buffer (pH 7.4), and 5 mM UDPGA in a total volume of 100 μl. Alamethicin is a pore-forming polypeptide used to activate UGTs in HLM and HIM ([Fisher et al., 2000]). Preliminary studies were conducted to determine the optimal protein concentrations and incubation times. Linear conditions of ticagrelor-O-Glu formation from ticagrelor, i.e., HLM, 0.2 mg of protein/ml and 60 min, HIM, 0.2 mg of protein/ml and 60 min, and recombinant human UGTs, 0.2 mg of protein/ml and 60 min were selected. The incubation mixture without UDPGA was placed on ice for 15 min to activate UGT by alamethicin. After pre-incubation for 5 min at 37°C, the reactions were started by the addition of UDPGA. After another 60 min of incubation at 37°C, the reaction was terminated by adding 100 μl of acetonitrile containing internal standard (diazepam). The mixture vortexed for 2 min and then centrifuged at 14,000 rpm for 10 min at 4°C. […]

In data set [4] the target is T4, UGT1A8 (Homo sapiens, UniProt Q9HAW9).
T4 construct: purchased BD Gentest; host or cells: baculovirus-infected insect cells
T4 sequence (Q9HAW9 26-530): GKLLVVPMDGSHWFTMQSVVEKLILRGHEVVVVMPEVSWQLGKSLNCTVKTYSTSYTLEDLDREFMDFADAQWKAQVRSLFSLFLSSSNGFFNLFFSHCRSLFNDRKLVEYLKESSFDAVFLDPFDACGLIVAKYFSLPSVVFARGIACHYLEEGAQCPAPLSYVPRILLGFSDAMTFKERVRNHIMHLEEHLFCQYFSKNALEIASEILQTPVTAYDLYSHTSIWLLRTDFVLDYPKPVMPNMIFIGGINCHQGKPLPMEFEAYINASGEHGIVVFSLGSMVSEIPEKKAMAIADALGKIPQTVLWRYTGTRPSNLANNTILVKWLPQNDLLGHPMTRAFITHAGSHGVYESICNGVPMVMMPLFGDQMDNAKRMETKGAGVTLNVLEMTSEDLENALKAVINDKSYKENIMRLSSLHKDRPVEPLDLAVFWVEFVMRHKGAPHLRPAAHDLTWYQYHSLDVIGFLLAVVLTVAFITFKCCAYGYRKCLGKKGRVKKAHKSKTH
The experiment in a line: Ticagrelor glucuronidation by recombinant human UGT1A8. The note with it: recombinant human UGT1A8, pH 7.4. As for the experimental part:
as §3, with “alamethicin.” for “alamethicin. After pre-incubation for 5 min at 37°C, the reactions were started by the addition of UDPGA. After another 60 min of incubation at 37°C, the reaction was terminated by adding 100 μl of acetonitrile containing internal standard (diazepam). The mixture vortexed for 2 min and then centrifuged at 14,000 rpm for 10 min at 4°C.”
Kinetic analyses were performed using the mean values of triplicate determinations with either pooled HLM, HIM, or recombinant human UGTs. All data were analyzed by nonlinear regression analysis using the GraphPad Prism 6 (GraphPad Software Inc., CA, United States). […] Intrinsic clearance (CLint) was calculated by dividing Vmax by Km.

For data set [5], the target named is T5, recombinant human UGT2B4 (Homo sapiens, UniProt P06133).
T5 construct: purchased BD Gentest; host or cells: baculovirus-infected insect cells
T5 sequence (P06133 24-528): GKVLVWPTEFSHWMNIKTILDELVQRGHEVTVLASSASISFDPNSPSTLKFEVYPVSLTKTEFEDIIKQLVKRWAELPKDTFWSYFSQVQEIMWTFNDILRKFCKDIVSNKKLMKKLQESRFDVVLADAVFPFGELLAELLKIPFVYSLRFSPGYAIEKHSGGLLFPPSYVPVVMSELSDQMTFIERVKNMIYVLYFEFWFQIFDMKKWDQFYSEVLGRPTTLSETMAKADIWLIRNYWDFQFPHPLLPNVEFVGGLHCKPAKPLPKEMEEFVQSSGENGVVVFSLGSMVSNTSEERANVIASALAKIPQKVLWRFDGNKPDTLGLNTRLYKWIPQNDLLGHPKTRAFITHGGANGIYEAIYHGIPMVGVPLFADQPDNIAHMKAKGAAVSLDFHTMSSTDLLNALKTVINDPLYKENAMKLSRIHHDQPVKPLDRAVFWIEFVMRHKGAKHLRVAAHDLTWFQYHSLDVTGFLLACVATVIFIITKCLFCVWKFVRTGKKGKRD
The experiment in a line: Ticagrelor glucuronidation screen, recombinant human UGT2B4. The note with it: 10 μM ticagrelor. Here is the method: as §3

T2 sequence (P10632 whole entry): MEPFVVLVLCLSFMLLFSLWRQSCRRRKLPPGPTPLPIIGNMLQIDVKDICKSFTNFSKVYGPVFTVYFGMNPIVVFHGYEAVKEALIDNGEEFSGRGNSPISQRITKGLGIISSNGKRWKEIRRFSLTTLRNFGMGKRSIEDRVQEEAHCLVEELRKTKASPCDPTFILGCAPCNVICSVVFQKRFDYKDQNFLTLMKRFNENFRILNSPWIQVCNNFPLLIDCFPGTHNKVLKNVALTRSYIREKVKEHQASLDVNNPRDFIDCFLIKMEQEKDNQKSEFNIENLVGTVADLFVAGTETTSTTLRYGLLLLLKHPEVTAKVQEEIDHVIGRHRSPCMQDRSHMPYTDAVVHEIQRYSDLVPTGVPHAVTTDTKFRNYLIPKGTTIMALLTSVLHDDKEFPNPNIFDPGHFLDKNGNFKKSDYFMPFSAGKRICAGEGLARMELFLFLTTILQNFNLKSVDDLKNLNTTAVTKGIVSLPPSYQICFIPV

For `CCCSc1nc(N[C@@H]2C[C@H]2c2ccc(F)c(F)c2)c2nnn([C@@H]3C[C@H](OCCO[C@@H]4O[C@H](C(=O)O)[C@@H](O)[C@H](O)[C@H]4O)[C@@H](O)[C@H]3O)c2n1` [Ticagrelor-O-Glu, ticagrelor-O-glucuronide], the IC50 in data set [1] and in data set [2] was above 100 µM each time.
With `CCCSc1nc(N[C@@H]2C[C@H]2c2ccc(F)c(F)c2)c2nnn([C@@H]3C[C@H](OCCO)[C@@H](O)[C@H]3O)c2n1` [Ticagrelor], the “glucuronidation activity for ticagrelor” value in data set [3] and in data set [5] was “no glucuronidation activities” throughout. For the same compound, the intrinsic metabolic clearance (microsomal CLint) in data set [4] was found to be 0.01 µL/min/mg.
